Measurements published in PubChem BioAssay (NCI).
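Cultured in 96-well plates, cells were exposed to test compound for 48 hours across five concentrations. TGI is the concentration that stops growth completely.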

Key:
Assay in all cases: growth of human tumour cells (NCI), 48 h
SN12C renal = tested on: SN12C renal
SW-620 colon = tested on: SW-620 colon
SR leukemia = tested on: SR leukemia
EKVX NSCLC = tested on: EKVX NSCLC
MDA-MB-231 breast = tested on: MDA-MB-231 breast
HOP-92 NSCLC = tested on: HOP-92 NSCLC
SNB-19 CNS = tested on: SNB-19 CNS
SK-MEL-5 melanoma = tested on: SK-MEL-5 melanoma
T-47D breast = tested on: T-47D breast
PC-3 prostate = tested on: PC-3 prostate
DU-145 prostate = tested on: DU-145 prostate
A549 NSCLC = tested on: A549 NSCLC
SK-MEL-28 melanoma = tested on: SK-MEL-28 melanoma
NCI/ADR-RES ovarian = tested on: NCI/ADR-RES ovarian
KM12 colon = tested on: KM12 colon
NCI-H23 lung = tested on: NCI-H23 lung
COLO 205 colon = tested on: COLO 205 colon
HS 578T breast = tested on: HS 578T breast
RXF 393 renal = tested on: RXF 393 renal
NCI-H522 lung = tested on: NCI-H522 lung
HCT-15 colon = tested on: HCT-15 colon
CCRF-CEM leukemia = tested on: CCRF-CEM leukemia
CAKI-1 renal = tested on: CAKI-1 renal
OVCAR-3 ovarian = tested on: OVCAR-3 ovarian
A498 renal = tested on: A498 renal
UACC-62 melanoma = tested on: UACC-62 melanoma
K-562 leukemia = tested on: K-562 leukemia
HCT-116 colon = tested on: HCT-116 colon
SF-295 CNS = tested on: SF-295 CNS
LOX IMVI melanoma = tested on: LOX IMVI melanoma
HOP-62 NSCLC = tested on: HOP-62 NSCLC
U251 CNS = tested on: U251 CNS
SK-MEL-2 melanoma = tested on: SK-MEL-2 melanoma
MDA-N = tested on: MDA-N
OVCAR-4 ovarian = tested on: OVCAR-4 ovarian
HCC-2998 colon = tested on: HCC-2998 colon
TK-10 renal = tested on: TK-10 renal
RPMI-8226 leukemia = tested on: RPMI-8226 leukemia
786-0 renal = tested on: 786-0 renal
HL-60(TB) leukemia = tested on: HL-60(TB) leukemia
M14 melanoma = tested on: M14 melanoma
UO-31 renal = tested on: UO-31 renal
SNB-75 CNS = tested on: SNB-75 CNS
NCI-H226 lung = tested on: NCI-H226 lung
IGROV1 ovarian = tested on: IGROV1 ovarian
SK-OV-3 ovarian = tested on: SK-OV-3 ovarian
ACHN renal = tested on: ACHN renal
SF-539 CNS = tested on: SF-539 CNS
MDA-MB-435 = tested on: MDA-MB-435
MALME-3M melanoma = tested on: MALME-3M melanoma
MOLT-4 leukemia = tested on: MOLT-4 leukemia
HT29 colon = tested on: HT29 colon
SF-268 CNS = tested on: SF-268 CNS
NCI-H460 lung = tested on: NCI-H460 lung
OVCAR-5 ovarian = tested on: OVCAR-5 ovarian
MCF7 breast = tested on: MCF7 breast
OVCAR-8 ovarian = tested on: OVCAR-8 ovarian
UACC-257 melanoma = tested on: UACC-257 melanoma

For `CC1(C)CC(=O)C2=C(C1)OC1=C(CC(C)(C)CC1=O)C2c1ccccc1[N+](=O)[O-]` (stereo not drawn), the TGI (SN12C renal) was greater than 100 µM, the TGI (SW-620 colon) was greater than 100 µM and the TGI (SR leukemia) was greater than 100 µM. The TGI (EKVX NSCLC) was greater than 100 µM, the TGI (MDA-MB-231 breast) was greater than 100 µM and the TGI (HOP-92 NSCLC) was greater than 100 µM. For the same compound, the TGI (SNB-19 CNS) was greater than 100 µM, the TGI (SK-MEL-5 melanoma) was greater than 100 µM and the TGI (T-47D breast) was greater than 100 µM. For the same compound, the TGI (PC-3 prostate) was greater than 100 µM, the TGI (DU-145 prostate) was greater than 100 µM and the TGI (A549 NSCLC) was greater than 100 µM. It also gave a TGI (SK-MEL-28 melanoma) greater than 100 µM, a TGI (NCI/ADR-RES ovarian) greater than 100 µM and a TGI (KM12 colon) greater than 100 µM. It also gave a TGI (NCI-H23 lung) greater than 100 µM, a TGI (COLO 205 colon) greater than 100 µM and a TGI (HS 578T breast) greater than 100 µM. The TGI (RXF 393 renal) was greater than 100 µM, the TGI (NCI-H522 lung) was greater than 100 µM and the TGI (HCT-15 colon) was greater than 100 µM. The TGI (CCRF-CEM leukemia) was greater than 100 µM, the TGI (CAKI-1 renal) was greater than 100 µM and the TGI (OVCAR-3 ovarian) was greater than 100 µM. The TGI (A498 renal) was greater than 100 µM, the TGI (UACC-62 melanoma) was greater than 100 µM and the TGI (K-562 leukemia) was greater than 100 µM. It also gave a TGI (HCT-116 colon) greater than 100 µM, a TGI (SF-295 CNS) greater than 100 µM and a TGI (LOX IMVI melanoma) greater than 100 µM. It also gave a TGI (HOP-62 NSCLC) greater than 100 µM, a TGI (U251 CNS) greater than 100 µM and a TGI (SK-MEL-2 melanoma) greater than 100 µM. It also gave a TGI (MDA-N) greater than 100 µM, a TGI (OVCAR-4 ovarian) greater than 100 µM and a TGI (HCC-2998 colon) greater than 100 µM. It also gave a TGI (TK-10 renal) greater than 100 µM, a TGI (RPMI-8226 leukemia) greater than 100 µM and a TGI (786-0 renal) greater than 100 µM. For the same compound, the TGI (HL-60(TB) leukemia) was greater than 100 µM, the TGI (M14 melanoma) was greater than 100 µM and the TGI (UO-31 renal) was 3.69 µM. It also gave a TGI (SNB-75 CNS) greater than 100 µM, a TGI (NCI-H226 lung) greater than 100 µM and a TGI (IGROV1 ovarian) greater than 100 µM. The TGI (SK-OV-3 ovarian) was greater than 100 µM, the TGI (ACHN renal) was greater than 100 µM and the TGI (SF-539 CNS) was greater than 100 µM. For the same compound, the TGI (MDA-MB-435) was greater than 100 µM, the TGI (MALME-3M melanoma) was greater than 100 µM and the TGI (MOLT-4 leukemia) was greater than 100 µM. For the same compound, the TGI (HT29 colon) was greater than 100 µM, the TGI (SF-268 CNS) was greater than 100 µM and the TGI (NCI-H460 lung) was greater than 100 µM. For the same compound, the TGI (OVCAR-5 ovarian) was greater than 100 µM.
`CC1C(c2ccc(Cl)cc2)c2cc3c(cc2OC1N1CCOCC1)OCO3` (stereo not drawn) gave a TGI (SN12C renal) greater than 100 µM, a TGI (SW-620 colon) greater than 100 µM and a TGI (SR leukemia) of 17.9 µM. The TGI (EKVX NSCLC) was greater than 100 µM, the TGI (MCF7 breast) was greater than 100 µM and the TGI (SNB-19 CNS) was greater than 100 µM. The TGI (SK-MEL-5 melanoma) was greater than 100 µM, the TGI (T-47D breast) was greater than 100 µM and the TGI (PC-3 prostate) was greater than 100 µM. The TGI (DU-145 prostate) was greater than 100 µM, the TGI (OVCAR-8 ovarian) was greater than 100 µM and the TGI (A549 NSCLC) was greater than 100 µM. For the same compound, the TGI (SK-MEL-28 melanoma) was greater than 100 µM, the TGI (NCI/ADR-RES ovarian) was greater than 100 µM and the TGI (KM12 colon) was greater than 100 µM. For the same compound, the TGI (NCI-H23 lung) was greater than 100 µM, the TGI (COLO 205 colon) was greater than 100 µM and the TGI (HS 578T breast) was 70.4 µM. The TGI (NCI-H522 lung) was greater than 100 µM, the TGI (HCT-15 colon) was greater than 100 µM and the TGI (CCRF-CEM leukemia) was greater than 100 µM. The TGI (CAKI-1 renal) was 71.5 µM, the TGI (OVCAR-3 ovarian) was greater than 100 µM and the TGI (UACC-62 melanoma) was greater than 100 µM. For the same compound, the TGI (K-562 leukemia) was greater than 100 µM, the TGI (HCT-116 colon) was greater than 100 µM and the TGI (SF-295 CNS) was greater than 100 µM. For the same compound, the TGI (LOX IMVI melanoma) was greater than 100 µM, the TGI (HOP-62 NSCLC) was greater than 100 µM and the TGI (SK-MEL-2 melanoma) was greater than 100 µM. The TGI (MDA-N) was greater than 100 µM, the TGI (HCC-2998 colon) was greater than 100 µM and the TGI (TK-10 renal) was greater than 100 µM. The TGI (RPMI-8226 leukemia) was greater than 100 µM, the TGI (786-0 renal) was greater than 100 µM and the TGI (M14 melanoma) was greater than 100 µM. It also gave a TGI (UO-31 renal) greater than 100 µM, a TGI (SNB-75 CNS) greater than 100 µM and a TGI (IGROV1 ovarian) greater than 100 µM. For the same compound, the TGI (ACHN renal) was greater than 100 µM, the TGI (SF-539 CNS) was greater than 100 µM and the TGI (MDA-MB-435) was greater than 100 µM. The TGI (MOLT-4 leukemia) was greater than 100 µM, the TGI (HT29 colon) was greater than 100 µM and the TGI (SF-268 CNS) was greater than 100 µM. It also gave a TGI (NCI-H460 lung) greater than 100 µM, a TGI (OVCAR-5 ovarian) greater than 100 µM and a TGI (UACC-257 melanoma) greater than 100 µM.
